Data as given in ChEMBL document CHEMBL6121044, “Discovery of Novel Spirocyclic MAT2A Inhibitors Demonstrating High In Vivo Efficacy in MTAP-Null Xenograft Models” (J Med Chem, 2025).

What was measured:
[1] = system: HCT-116; assay: Anti-tumor activity against human HCT-116 MATP(-/-) cells xenografted in mouse model assessed as tumor growth inhibition at 200 mg/kg QD relative to control; format: functional; conditions: read-out: TGI
[2] = system: HCT-116; assay: Antiproliferative activity against MTAP-knock out human HCT-116 cells assessed as proliferation inhibition rate measured after 5 days by CTG assay; format: functional, cell-based; conditions: HCT-116, 120 h
[3] = system: HCT-116; assay: Antiproliferative activity against MTAP-knock out human HCT-116 cells assessed as maximal inhibition rate at 10 uM measured after 5 days by CTG assay relative to control; format: functional; conditions: time 5 day
[4] = Microsomal metabolic stability in human liver microsomes assessed as clearance; format: ADME, Microsome; conditions: read-out: CLH
[5] = Microsomal metabolic stability in mouse liver microsomes assessed as clearance; format: ADME, Microsome; conditions: read-out: CLH
[6] = molecular target: S-adenosylmethionine synthase isoform type-2 (Homo sapiens, UniProt P31153); assay: Inhibition of MAT2A (unknown origin) assessed as release of inorganic phosphate using ATP/L-methionine pre-incubated for 30 mins followed by substrate addition measured after 2.5 hrs by colorimetric assay
[7] = Lipophilicity, log D of compound at pH 7.4 byHPLC method; format: physicochemical; conditions: buffer
[8] = system: HCT-116; assay: Anti-tumor activity against human HCT-116 MATP(-/-) cells xenografted in mouse model assessed as tumor growth inhibition at 30 mg/kg QD relative to control; format: functional; conditions: read-out: TGI
[9] = Clearance in male ICR mouse at 10 mg/kg, po and 2 mg/kg, iv measured upto 24 hrs; format: ADME, organism-based; conditions: in vivo
[10] = Volume of distribution at steady state in male ICR mouse at 10 mg/kg, po and 2 mg/kg, iv measured upto 24 hrs; format: ADME, organism-based; conditions: in vivo
[11] = Half life in male ICR mouse at 10 mg/kg, po and 2 mg/kg, iv measured upto 24 hrs; format: ADME, organism-based; conditions: in vivo
[12] = AUC (0 to infinity) in male ICR mouse at 10 mg/kg, po and 2 mg/kg, iv measured upto 24 hrs; format: ADME, organism-based; conditions: in vivo

Chain of S-adenosylmethionine synthase isoform type-2 (P31153 whole entry, canonical isoform): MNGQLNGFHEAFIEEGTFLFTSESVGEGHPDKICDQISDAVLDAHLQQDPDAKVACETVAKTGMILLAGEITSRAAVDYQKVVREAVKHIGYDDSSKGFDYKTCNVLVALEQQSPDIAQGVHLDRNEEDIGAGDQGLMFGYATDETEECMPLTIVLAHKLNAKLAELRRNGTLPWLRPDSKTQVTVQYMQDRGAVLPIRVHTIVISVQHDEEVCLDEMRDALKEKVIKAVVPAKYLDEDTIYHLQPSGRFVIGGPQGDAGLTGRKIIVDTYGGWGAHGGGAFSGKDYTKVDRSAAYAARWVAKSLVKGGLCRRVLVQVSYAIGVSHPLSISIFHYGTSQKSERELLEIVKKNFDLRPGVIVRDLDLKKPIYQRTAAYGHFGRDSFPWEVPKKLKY

Row | IC50 [2] [nM] | CLint scaled [4] [mL/min/kg] | CLint scaled [5] [mL/min/kg] | IC50 [6] [nM] | logD [7] | Compound | Imax [3] [%] | also measured
1 |  |  |  | 64 | 2.4 | C=C(c1ccc2c(c1)C1(CCc3ncccc31)C(=O)N=C2NC)C(F)(F)F (stereo unspecified) |  | 
2 | 101 | < 9.3 | 55 | 9 | 1.57 | CNC1=NC(=O)C2(CCc3ncccc32)c2cc(C(C)(F)F)ccc21 (stereo unspecified) | 100 | 
3 | 5080 |  |  | 115 |  | CNC1=NC(=O)C2(COc3ccccc32)c2nc(C(F)(F)F)ccc21 (stereo unspecified) | 51.99 | 
4 | > 10000 |  |  | 78 |  | CNC1=NC(=O)C2(CC(C)(C)c3ccccc32)c2nc(C(F)(F)F)ccc21 (stereo unspecified) |  | 
5 | 4710 | < 9.3 | 71.6 | 33 |  | CNC1=NC(=O)C2(CCc3cc(F)ccc32)c2nc(C(F)(F)F)ccc21 (stereo unspecified) | 55.77 | 
6 |  |  |  | > 3000 |  | CNC1=NC(=O)C2(OCc3ccccc32)c2nc(C(F)(F)F)ccc21 (stereo unspecified) |  | 
7 |  |  |  | 55 |  | CNC1=NC(=O)C2(Cc3ccccc3C2)c2nc(C(F)(F)F)ccc21 |  | 
8 |  |  |  | 591 |  | CNC1=NC(=O)C2(CCc3cccnc32)c2nc(C(F)(F)F)ccc21 (stereo unspecified) |  | 
9 |  |  |  | 18 |  | CNC1=NC(=O)C2(CCc3c(Br)cccc32)c2nc(C(F)(F)F)ccc21 (stereo unspecified) |  | 
10 |  |  |  | 57 |  | CNC1=NC(=O)C(C)(c2ccccc2)c2nc(C(F)(F)F)ccc21 (stereo unspecified) |  | 
11 | 225 |  |  | 24 |  | CNC1=NC(=O)C2(CCc3cccc(F)c32)c2nc(C(F)(F)F)ccc21 (stereo unspecified) | 71.66 | 
12 | 57 | 24.1 | 193 | 12 |  | CNC1=NC(=O)C2(CCCc3ccccc32)c2nc(C(F)(F)F)ccc21 (stereo unspecified) | 74.25 | 

The remaining lines, values behind:

Row | Compound | IC50 [2] [nM] | CLint scaled [4] [mL/min/kg] | CLint scaled [5] [mL/min/kg] | IC50 [6] [nM] | logD [7] | Imax [3] [%] | also measured
13 | COc1ccc(-c2c(Nc3ccccn3)[nH]c3c(C4=CCCCC4)c(-c4ccccc4)nn3c2=O)cc1 | 492 | < 9.3 | 40.3 |  |  | 100 | inhibition in vivo at 200 mg/kg [1]: 52%
14 | CNC1=NC(=O)C2(CCc3ncccc32)c2cc(C3CC3)cc(F)c21 (stereo unspecified) | 240 |  |  | 13 | 2.21 | 78.29 | 
15 | Cn1cnc2c(=O)n(-c3cccnc3C3CC3)c3cc(Cl)ccc3c21 |  |  |  |  |  |  | inhibition in vivo at 30 mg/kg [8]: 82.9%
16 | [2H]C([2H])([2H])NC1=NC(=O)[C@]2(CCc3ncccc32)c2cc(C3CC3)c(F)cc21 | 49 | < 9.3 | 38.9 | 4 | 2.2 | 77 | clearance [9]: 11.4 mL/min/kg; Vdss [10]: 1.02 L/kg; half-life [11]: 2.1 h; AUC(0-inf) [12]: 12300 ng·h/mL
17 | CNC1=NC(=O)C2(CCc3ncccc32)c2cc(C3CC3)c(F)cc21 (stereo unspecified) | 83 | < 9.3 | 38.9 | 4 | 2.24 | 84.78 | 
18 | CNC1=NC(=O)C2(CCc3ncccc32)c2cc(C=C(F)F)ccc21 (stereo unspecified) | 2440 |  |  | 16 | 1.95 | 96.49 | 
19 | CNC1=NC(=O)C2(CCc3ncccc32)c2cc(C3CC3)ncc21 (stereo unspecified) | 1060 |  |  | 47 | 1.1 | 79.52 | 
20 | COC1(C(=O)N2Cc3nc(Cl)nc(N[C@H](C)c4cc(N)cc(C(F)(F)F)c4)c3C2)CCOCC1 |  | < 9.3 | < 9.3 |  |  |  | 
21 | CNC1=NC(=O)C2(CCc3ncccc32)c2cc(OC(F)F)ccc21 (stereo unspecified) | 193 |  |  | 8 | 1.36 | 83.08 | 
